Where two headings read alike, the source gives them in different places.
Columns and labels:
C. parvum Iowa isolate = assay: IFN-γ knockout mouse model of acute cryptosporidiosis; assay type: in vivo, C57BL/6 IFN-γ−/− mice; conditions: 30 mg/kg twice daily on days 4, 5, 6 postinfection
Method: All interferon gamma (IFN-γ) knockout mouse studies were performed in compliance with animal care guidelines and were approved by the Explora BioLabs (San Diego, CA) Institutional Animal Care and Use Committee. Four-week-old female C57BL/6 IFN-γ^−/− mice with normal flora were purchased from The Jackson Laboratory and were acclimated for 3 days prior to infection by oral gavage with 10^6 C. parvum Iowa isolate oocysts (Sterling Parasitology Laboratory, University of Arizona) suspended in sterile distilled water. At various times postinfection, mice were treated with the compound vehicle alone, clofazimine (used as a positive control), or MMV665917. As described previously, fecal parasite shedding was quantified at various times postinfection by isolating oocysts using a sucrose gradient centrifugation method ([39]), followed by staining for immunofluorescence microscopy using a fluorescein isothiocyanate-conjugated mouse anti-Cryptosporidium antibody (0.25 μg per sample) and analysis with a Guava easyCyte flow cytometer and CytoSoft data acquisition and analysis software (version 5.3; Guava Technologies, Inc.). Oocyst counts per milliliter of sample were exported to Excel (Microsoft Corp.) and were normalized to counts per milligram of feces. Final data analysis and graphing were carried out using GraphPad Prism software (version 6.01).

[1] = system: cytochrome P450 (CYP) isoforms (1A2, 2C9, 2C19, 2D6, 3A4-M, and 3A4-T); set-up: method as in PMID 27467575; conditions: at 10 μM; cited from earlier work
C. parvum = assay: Parasite persistence (time-kill) assay in HCT-8 cells; assay type: cell-based, Cryptosporidium parvum
Method: Excysted C. parvum oocysts were added to >90% confluent HCT-8 cells in 384-well plates. […] At ∼24 h (i.e., the time of compound addition) and at various time intervals thereafter, parasites were washed, fixed, permeabilized, stained, and imaged as for the C. parvum growth assay. For the extended-compound-exposure experiments, the medium and compound were replaced every 3 days. A separate 384-well plate was used for each time interval. Parasite numbers were normalized to host cell nucleus numbers and are expressed as the percentage of parasites per host cell nucleus. In order to fit parasite decay curves, the effect of drugs was isolated from expected changes in parasite numbers over time by expressing the number of parasites as the percentage of the number of parasites with the control, dimethyl sulfoxide (DMSO), for each time point. Exponential decay curves were fit using GraphPad Prism software, version 6.01, and curve validity was assessed using the replicates test.

[2] = system: 11 species of bacteria, 12 protozoa, and 7 helminths; set-up: method as in PMID 27467575; conditions: cited from earlier work
[3] = set-up: method as in PMID 27467575; conditions: mouse; cited from earlier work
C. hominis TU502 = assay: Cryptosporidium hominis growth inhibition assay (1,536-well); assay type: cell-based; conditions: HCT-8 cells, read-out: EC50 against C. hominis (isolate TU502)
Method: Cryptosporidium hominis growth inhibition assays were performed at the California Institute for Biomedical Research (Calibr), San Diego, CA, using a slightly modified immunofluorescence assay to enable automated compound handling and the use of 1,536-well microtiter plates ([19]). The HCT-8 culture medium was replaced with RPMI 1640 medium supplemented with 2% heat-inactivated horse serum, 100 U/ml penicillin, and […] streptomycin 24 h prior to infection with either C. hominis or the C. parvum Iowa isolate, used as a reference. […] Imaging was performed using a CellInsight CX5 High Content screening platform (Thermo Scientific) with a 10× objective and acquisition of one microscopic field per well. Images were processed using HCS Studio Scan software, and the selected-object count (HCT-8 cells) and spot count (C. hominis) were analyzed in Genedata Screener (version 13.0; Standard). Dose-response curves and EC values were calculated using the Smart Fit function of Genedata Analyzer.

[4] = set-up: method as in PMID 27467575; conditions: human; cited from earlier work

**Q.** What does the source list for `O=C(Nc1ccc(Cl)cc1)N1CCN(c2ccc3nncn3n2)CC1` [MMV665917, Clc1ccc(NC(=O)N2CCN(CC2)c3ccc4nncn4n3)cc1]?
**A.** efficacy in IFN-γ KO mouse model of acute infection (C. parvum Iowa isolate): highly efficacious; inhibition of six CYP isoforms [1]: low inhibition; concentration giving maximal rate of parasite elimination (C. parvum): 3 × EC90; parasiticidal or parasitistatic for C. parvum (C. parvum): parasiticidal; decay rate constant (r) (C. parvum; 3× EC90, one-phase exponential decay): 0.05346; decay rate constant (r) (C. parvum; 12× EC90, one-phase exponential decay): 0.05864; percentage of host cells infected, extended treatment (C. parvum; day 13 of treatment, 12 × EC90, medium and drug replaced every 3 days): ~0.1%; activity in numerous biological assays (bacteria, protozoa, helminths) [2]: inactive; plasma protein binding [3]: 83.3%; EC50 (C. hominis TU502): 4.05 µM; plasma protein binding [4]: 88.8%

From publication PMC5913971, “A Novel Piperazine-Based Drug Lead for Cryptosporidiosis from the Medicines for Malaria Venture Open-Access Malaria Box” (Antimicrobial Agents and Chemotherapy, 2018)
